Data: US20240092784A1, “CONDENSED HETEROCYCLIC COMPOUND” (NISSAN CHEMICAL CORPORATION, priority 2020, published 2024)
Structures can show the parent of a compound that is named as a salt.

biological target: human SPR (Homo sapiens (Human), UniProt P35270); assay: Evaluation Example 2: Measurement of human SPR inhibitory activity (seven concentrations, sepiapterin absorbance at 420 nm); format: biochemical; conditions: Evaluation Example 2, seven concentrations 0.14 nM to 100 nM, 240 minutes at room temperature, read-out: IC50
Sequence (P35270 whole entry): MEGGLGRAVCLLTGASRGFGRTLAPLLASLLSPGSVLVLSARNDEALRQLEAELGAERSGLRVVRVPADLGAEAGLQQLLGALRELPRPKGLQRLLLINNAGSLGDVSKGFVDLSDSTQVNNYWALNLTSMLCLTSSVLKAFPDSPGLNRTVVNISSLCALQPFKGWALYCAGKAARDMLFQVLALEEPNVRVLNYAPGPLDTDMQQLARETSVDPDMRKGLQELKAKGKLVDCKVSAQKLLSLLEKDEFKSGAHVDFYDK
In short: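 Reactions ran 240 min at room temperature in 100 mM Tris-HCl pH 7.5 with 0.01% BSA. They contained tag-cleaved, E. coli-expressed full-length human SPR (diluted to 150 ng/mL), seven compound concentrations from 0.14 to 100 nM, and sepiapterin/NADPH added as a 120 μM/160 μM solution. Inhibition was calculated from sepiapterin absorbance at 420 nm.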

SMILES | IC50
CC(C)Cn1c(=O)c(C(=O)NC2CC2)c(O)n2ncc(/C=C/C(=O)NC(C)(C)C3CC3)c12 [compound 493] | 0.94 nM
CC(C)(C)Cn1c(=O)c(C(=O)NC2CC2)c(O)n2nc(Nc3cnc(F)cn3)cc12 [Synthesis Example 322, N-Cyclopropyl-2-((5-fluoropyrazin-2-yl)amino)-7-hydroxy-4-neopentyl-5-oxo-4,5-dihydropyrazolo[1,5-a]pyrimidine-6-carboxamide] | 0.98 nM
CC(C)Cn1c(=O)c(C(=O)NC2CC2)c(O)n2nc(N)c(/C=C/C3CCOCC3)c12 [Synthesis Example 434, (E)-2-Amino-N-cyclopropyl-7-hydroxy-4-isobutyl-5-oxo-3-(2-(tetrahydro-2H-pyran-4-yl)vinyl)-4,5-dihydropyrazolo[1,5-a]pyrimidine-6-carboxamide hydrochloride] | 1.4 nM
CC1(Cn2c(=O)c(C(=O)NC3CC3)c(O)n3ncc(/C=C/C(=O)N4C[C@H]5C[C@@H]4CO5)c23)CC1 [Synthesis Example 373] | 0.74 nM
CC(C)Cn1c(=O)c(C(=O)NC2CC2)c(O)n2ncc(/C=C/C(=O)N3CCN(CC(F)(F)C(F)(F)F)CC3)c12 [compound 505, (E)-N-Cyclopropyl-7-hydroxy-4-isobutyl-5-oxo-3-(3-oxo-3-(4-(2,2,3,3,3-pentafluoropropyl)piperazin-1-yl)prop-1-en-1-yl)-4,5-dihydropyrazolo[1,5-a]pyrimidine-6-carboxamide] | 1.89 nM
CC1(Cn2c(=O)c(C(=O)NC3CC3)c(O)n3nc(N)c(/C=C/C4CCOCC4)c23)CCOCC1 [Synthesis Example 445, (E)-2-Amino-N-cyclopropyl-7-hydroxy-4-((4-methyltetrahydro-2H-pyran-4-yl)methyl)-5-oxo-3-(2-(tetrahydro-2H-pyran-4-yl)vinyl)-4,5-dihydropyrazolo[1,5-a]pyrimidine-6-carboxamide hydrochloride] | 0.66 nM
Cc1nn2c(O)c(C(=O)NC3CC3)c(=O)n(CC(C)C)c2c1/C=C/C(=O)N1CCC[C@H]1C [compound 581, (R,E)-N-Cyclopropyl-7-hydroxy-4-isobutyl-2-methyl-3-(3-(2-methylpyrrolidin-1-yl)-3-oxoprop-1-en-1-yl)-5-oxo-4,5-dihydropyrazolo[1,5-a]pyrimidine-6-carboxamide] | 1.09 nM
CC(C)Cn1c(=O)c(C(=O)NC2CC2)c(O)n2ncc(/C=C/C(=O)N3CCCC3(C)C)c12 [compound 537, (E)-N-Cyclopropyl-3-(3-(2,2-dimethylpyrrolidin-1-yl)-3-oxoprop-1-en-1-yl)-7-hydroxy-4-isobutyl-5-oxo-4,5-dihydropyrazolo[1,5-a]pyrimidine-6-carboxamide] | 0.86 nM
Cc1nn2c(O)c(C(=O)NC3CC3)c(=O)n(CC(C)(C)C)c2c1/C=C/C(=O)N1CCOC[C@@H]1C [Synthesis Example 625, (S,E)-N-Cyclopropyl-7-hydroxy-2-methyl-3-(3-(3-methylmorpholino)-3-oxoprop-1-en-1-yl)-4-neopentyl-5-oxo-4,5-dihydropyrazolo[1,5-a]pyrimidine-6-carboxamide] | 1.05 nM

same assay, conditions: sepiapterin absorbance, Table 41, read-out: concentration at 50% inhibition of human SPR (IC50)

SMILES | IC50
Cc1nn2c(O)c(C(=O)NC3CC3)c(=O)n(CC(C)C)c2c1/C=C/C(=O)N1CCOc2ccncc21 [Synthesis Example 695, (E)-N-Cyclopropyl-3-(3-(2,3-dihydro-4H-pyrido[4,3-b][1,4]oxazin-4-yl)-3-oxoprop-1-en-1-yl)-7-hydroxy-4-isobutyl-2-methyl-5-oxo-4,5-dihydropyrazolo[1,5-a]pyrimidine-6-carboxamide] | 1.3 nM
CC(C)Cn1c(=O)c(C(=O)NC2CC2)c(O)n2ncc(/C=C/C(=O)N(C)Cc3cnccn3)c12 [Synthesis Example 709, (E)-N-Cyclopropyl-7-hydroxy-4-isobutyl-3-(3-(methyl(pyrazin-2-ylmethyl)amino)-3-oxoprop-1-en-1-yl)-5-oxo-4,5-dihydropyrazolo[1,5-a]pyrimidine-6-carboxamide] | 0.85 nM
